One data set deals with T1, human Kv3.1b (Homo sapiens, UniProt P48547).
T1 construct: expressed in transfected cells
T1 sequence (P48547 1-585 isoform P48547-2): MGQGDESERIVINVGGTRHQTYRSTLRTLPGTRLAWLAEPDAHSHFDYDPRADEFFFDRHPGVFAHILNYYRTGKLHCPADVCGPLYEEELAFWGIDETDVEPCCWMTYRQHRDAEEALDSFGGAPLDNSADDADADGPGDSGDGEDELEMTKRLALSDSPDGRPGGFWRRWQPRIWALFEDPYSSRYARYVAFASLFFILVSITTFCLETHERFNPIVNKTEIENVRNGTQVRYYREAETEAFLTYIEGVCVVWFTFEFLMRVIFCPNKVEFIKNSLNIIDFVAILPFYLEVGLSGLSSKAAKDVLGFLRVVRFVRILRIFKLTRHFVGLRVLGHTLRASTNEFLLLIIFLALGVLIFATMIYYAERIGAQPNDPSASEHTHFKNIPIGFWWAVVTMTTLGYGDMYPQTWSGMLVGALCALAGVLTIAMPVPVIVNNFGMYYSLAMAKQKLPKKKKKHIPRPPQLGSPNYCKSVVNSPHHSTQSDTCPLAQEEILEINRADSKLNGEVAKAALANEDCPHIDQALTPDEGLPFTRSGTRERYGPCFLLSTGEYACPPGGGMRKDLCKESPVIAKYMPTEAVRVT
The data set can be described thus: Manual patch clamp electrophysiology, HEK-293 cells stably expressing human Kv3.1b. It counts as cell-based. The settings on record: for hKv3.1 ECΔ30% increase: concentration increasing current by 30% at the −10 mV step; for hKv3.1 ECΔ5 mV: concentration that shifts activation threshold by 5 mV. How it is done:
Manual Patch Clamp Electrophysiological Evaluation, hKv3.1, hKv3.2, hKv3.3, hKv3.4:
HEK-293 cells stably expressing human Kv3.1b, Kv3.2, Kv3.3 or Kv3.4 were used for the experiments.
Kv3.1b, Kv3.2: Cells were cultured in MEM medium supplemented with 10% Fetal Bovine Serum, 1% Penicillin/Streptomycin, 2 mM glutamine and 0.6 mg/mL geneticin. Cells were grown to 80-90% confluency at 37° C. and 5% CO2 Kv3.3 or Kv3.4: Cells were cultured in DMEM medium supplemented with 10% Fetal Bovine Serum, 500 ug/mL Geneticidin and 1% Penicillin/Streptomycin. Cells were grown to 80-90% confluency at 37° C. and 5% CO2.
On the day of the experiment the cells were detached by TrypLE and resuspended in culture medium. Cells were centrifuged, media removed and the cells were resuspended in extracellular buffer containing (in mM): 130 Na-gluconate, 20 NaCl, 4 KCl, 1 MgCl2, 1.8 CaCl2, 10 HEPES and 5 glucose, pH 7.3 adjusted with NaOH, 310-320 mOsm
Patch-clamp recordings were performed using a manual patch-clamp system (Axon Multiclamp 700B, Digidata 1440, pCLAMP 10, Molecular Devices Corporation) with a fast perfusion system (RSC-160 Rapid solution Changer, BioLogic). Whole-cell recordings were carried out using an intracellular solution containing (in mM): 100 K-gluconate, 40 KCl, 10 HEPES, 1 EGTA, 1 MgCl2, pH 7.2 adjusted with KOH, 290-300 mOsm. Cell membrane potentials were held at −80 mV and current voltage-relationship was generated by voltage steps (50 ms duration) from −100 mV to +10 mV (in 10 mV increments) and then back to −100 mV for 50 ms, with inter-sweep interval of 3 s. The peak current amplitude of −10 mV was monitored until stable (<5% change) by using one step voltage protocol. One IV protocol was run as baseline, then compound perfusion was stared and peak current stability was monitored with single step protocol prior to the IV protocol. Single concentrations were measured per cell. Acceptable cells had seal resistance >500 MOhm, Access resistance <10 MOhm, and leak current <200 pA.
Data analysis was performed using Clampfit (V10.2) in combination with Microsoft Excel™ (Redmond, Wash., USA). Current voltage relationships were plotted from the peak current (baseline subtracted) at the individual voltage steps normalized to the vehicle addition at 10 mV. The voltage threshold for channel activation was defined as 5% activation of the peak current at 10 mV in presence of vehicle. […] The concentration needed to shift the threshold 5 mV was readout from this curve (ECΔ5 mV), as well as the ability to increase the peak current at the −10 mV step (EC30% increase). […]
Background: Patch clamp records ionic current or voltage across a cell membrane.

The nature of data set [1]: In vivo pharmacokinetic time profile in mice (plasma and brain). Also noted: species or system mouse. Conditions: for Kp / half-life / Cmax: male; for Kp: C57, mouse, brain, read-out: measured brain/plasma ratio; for half-life / Cmax: C57, plasma; for half-life / Cmax / Estimated unbound brain Cmax / Unbound plasma, Cmax: mouse; for half-life: read-out: T½ (converted). How it is done: Male Sprague Dawley rats or male C57 mice from SLAC Laboratory Animal Co. Ltd., Shanghai, China or SIPPR/BK Laboratory Animal Co. Ltd., Shanghai, China were used for pharmacokinetic studies. Animals were group housed during acclimation and individually housed during in-life. The animal room environment was controlled (conditions: temperature 20 to 26° C., relative humidity 30 to 70%, 12 hours artificial light and 12 hours dark) and all animals have access to Certified Rodent Diet (Beijing KEAO XIELI Feed Co., Ltd. Beijing, P.R. China.) ad libitum. Animals were deprived of food overnight prior to dosing and fed approximately 4 hours post-dosing. Water was autoclaved before provided to the animals ad libitum.
For oral dosing, the dose formulation was administered via oral gavage.
Animals were anesthetized via isoflurane. At terminal time point, about 200 μL blood was collected from cardiac puncture or abdominal vein. All blood samples were transferred into microcentrifuge tubes containing 5 μL of K2EDTA (0.5 M) as anti-coagulant and placed on wet ice until processed for plasma by centrifugation (3,000 rpm for 5 minutes at 2 to 8° C.) within half an hour of collection and kept at −70±10° C. until LC/MSMS analysis
After blood collection, brain was harvested and washed twice with cold deionized water, and blotted on filter paper, weighted and frozen until processed. Brain samples were thawed and homogenized with 4-fold of cold water using Covaris (peak power 450.0, Duty Factor 20.0, Cycles/Burst 200). for 3 min, vortex for 10 second every 1 min. Samples were further stored at −79° C. (dilution factor=5) until bioanalysis

Data set [2] in a line: Unbound fraction in plasma (mouse PK table footnote). The format is in vitro ADME.

Where two headings read alike, the source gives them in different places.

Regarding `Cc1ccc(S(=O)(=O)n2ccc(C(=O)NCc3ncco3)c2)cc1` [Compound 86, 1-(4-methylbenzene-1-sulfonyl)-N-[(1,3-oxazol-2-yl)methyl]-1H-pyrrole-3-carboxamide], the “hKv3.1 ECΔ30% increase” value on human Kv3.1b is 10.1 µM. In addition, the “hKv3.1 ECΔ5 mV” value on human Kv3.1b was found to be 3.0 µM. For the same compound, the Kp in data set [1] (subcutaneous) was 0.3. Moreover, the half-life in data set [1] (SC administration, dose 3 (mg/mg) (Table 7)) was 42 min; in data set [1] (SC administration, dose 30 (mg/mg) (Table 7)), 36 min. Further, the highest concentration (Cmax) (commonly the maximum level reached in the sampled fluid or tissue) in data set [1] (SC administration, dose 3 (mg/mg), vehicle 10% HP-betaCD (Table 7)) came to 3020 ng/mL; in data set [1] (SC administration, dose 30 (mg/mg), vehicle 10% HP-betaCD (Table 7)), 22000 ng/mL. Also, the “Estimated unbound brain Cmax” value in data set [1] (SC, dose 3 (mg/mg), based on brain/plasma ratio 0.3 and unbound fraction in brain 11%) is reported as 289 nM; in data set [1] (SC, dose 30 (mg/mg), based on brain/plasma ratio 0.3 and unbound fraction in brain 11%), 2100 nM. Also, the “Unbound plasma, Cmax” value in data set [1] (SC, dose 3 (mg/mg), unbound fraction in plasma 8%) was found to be 700 nM; in data set [1] (SC, dose 30 (mg/mg), unbound fraction in plasma 8%), 5094 nM. Further, the fraction unbound (as a rule, free concentration divided by total concentration) in data set [2] was found to be 0.08.
Regarding `Cc1cnc(CNC(=O)c2ccn(S(=O)(=O)c3ccc(F)cc3C)c2)cn1` [Compound 90, 1-(4-fluoro-2-methylbenzene-1-sulfonyl)-N-[(5-methylpyrazin-2-yl)methyl]-1H-pyrrole-3-carboxamide], the “hKv3.1 ECΔ30% increase” value at human Kv3.1b came to 1.8 µM. Further, the “hKv3.1 ECΔ5 mV” value on human Kv3.1b came to 0.6 µM. Further, the Kp in data set [1] amounted to 0.4. In addition, the Cmax in data set [1] (3 mg/kg, PO administration, dose 3 (mg/mg), vehicle 10% HP-betaCD) is 274 ng/mL; in data set [1] (3 mg/kg, SC administration, dose 3 (mg/mg), vehicle 10% HP-betaCD) it was 1130 ng/mL; in data set [1] (10 mg/kg, SC administration, dose 10 (mg/mg), vehicle 10% HP-betaCD), 6360 ng/mL; in data set [1] (30 mg/kg, PO administration, dose 30 (mg/mg), vehicle 10% HP-betaCD), 7350 ng/mL. Also, the half-life in data set [1] (3 mg/kg, PO administration, dose 3 (mg/mg)) is 60 min; in data set [1] (3 mg/kg, SC administration, dose 3 (mg/mg)), 30 min; in data set [1] (10 mg/kg, SC administration, dose 10 (mg/mg)), 78 min; in data set [1] (30 mg/kg, PO administration, dose 30 (mg/mg)), 60 min. In addition, the “Estimated unbound brain Cmax” value in data set [1] (PO, dose 3 (mg/mg), based on brain/plasma ratio 0.4 and unbound fraction in brain 10%) is reported as 28 nM; in data set [1] (PO, dose 30 (mg/mg), based on brain/plasma ratio 0.4 and unbound fraction in brain 10%) it was 753 nM; in data set [1] (SC, dose 3 (mg/mg), based on brain/plasma ratio 0.4 and unbound fraction in brain 10%) it was 116 nM; in data set [1] (SC, dose 10 (mg/mg), based on brain/plasma ratio 0.4 and unbound fraction in brain 10%) it was 656 nM. For the same compound, the “Unbound plasma, Cmax” value turned out to be 70 nM in data set [1] (PO, dose 3 (mg/mg), unbound fraction in plasma 10%); 1895 nM in data set [1] (PO, dose 30 (mg/mg), unbound fraction in plasma 10%); 291 nM in data set [1] (SC, dose 3 (mg/mg), unbound fraction in plasma 10%); 1639 nM in data set [1] (SC, dose 10 (mg/mg), unbound fraction in plasma 10%). The same compound registered a fraction unbound in data set [2] of 0.1.
